Results published in ChEMBL document CHEMBL5226286, “The application of isatin-based multicomponent-reactions in the quest for new bioactive and druglike molecules” (Eur J Med Chem, 2021).
Converted amounts (≈) assume the structure as drawn. Each block holds one compound with its values, some of them ahead of it.

Assays:
Tobacco mosaic virus [1] = assay: Antiviral activity against Tobacco mosaic virus assessed as inactivation effect relative to control; format: functional
Tobacco mosaic virus [2] = assay: Antiviral activity against Tobacco mosaic virus assessed as curative effect relative to control; format: functional
Tobacco mosaic virus [3] = assay: Antiviral activity against Tobacco mosaic virus assessed as protection effect relative to control; format: functional
Acetylcholinesterase = Acetylcholinesterase (Homo sapiens, UniProt P22303); assay: Inhibition of AChE (unknown origin)
Cholinesterase = Cholinesterase (Homo sapiens, UniProt P06276); assay: Inhibition of BChE (unknown origin)
Aspergillus niger = assay: Antifungal activity against Aspergillus niger assessed as zone of inhibition at 25 ug/ml; format: functional; conditions: read-out: DIZ
Candida metapsilosis = assay: Antifungal activity against Candida metapsilosis assessed as zone of inhibition at 25 ug/ml; format: functional; conditions: Lodderomyces metapsilosis, read-out: DIZ
Salmonella sp. = assay: Antibacterial activity against Salmonella sp. NCIM 2501 by microdilution broth method; format: functional
Proteus vulgaris = assay: Antibacterial activity against Proteus vulgaris NCIM 2813 by microdilution broth method; format: functional
Pseudomonas aeruginosa = assay: Antibacterial activity against Pseudomonas aeruginosa NCIM 5029 by microdilution broth method; format: functional
Escherichia coli [4] = assay: Antibacterial activity against Escherichia coli NCIM 2931 by microdilution broth method; format: functional
Staphylococcus aureus [5] = assay: Antibacterial activity against Staphylococcus aureus NCIM5021 by microdilution broth method; format: functional
ECa-109 cell line = assay: Antiproliferative activity against human EC109 cells; format: functional, cell-based
SMMC-7721 = assay: Antiproliferative activity against human SMMC-7721 cells; format: functional, cell-based
MGC-803 = assay: Antiproliferative activity against human MGC-803 cells; format: functional, cell-based
Candida albicans = assay: Antifungal activity against Candida albicans MTCC 227; format: functional
Saccharomyces cerevisiae = assay: Antifungal activity against Saccharomyces cerevisiae MTCC 170; format: functional
PC-3 = assay: Antiproliferative activity against human PC-3 cells; format: functional, cell-based
LNCaP = assay: Antiproliferative activity against human LNCaP cells; format: functional, cell-based
Staphylococcus aureus [6] = assay: Antibacterial activity against Staphylococcus aureus by agar well diffusion method; format: functional
Bacillus subtilis [7] = assay: Antibacterial activity against Bacillus subtilis by agar well diffusion method; format: functional
Escherichia coli [8] = assay: Antibacterial activity against Escherichia coli by agar well diffusion method; format: functional
A549 = assay: Anticancer activity against human A549 cells by MTT assay; format: functional, cell-based
K562 = assay: Anticancer activity against human K562 cells by MTT assay; format: functional, cell-based
Proteus mirabilis = assay: microbe, parasite or virus in culture; conditions: PTCC 1776
Description: Antimicrobial activity against Proteus mirabilis PTCC 1776 by broth disk diffusion microdilution method

[9] = system: Staphylococcus epidermidis; assay: microbe, parasite or virus in culture; conditions: PTCC 1435
Description: Antimicrobial activity against Staphylococcus epidermidis PTCC 1435 by broth disk diffusion microdilution method

MCF7 = assay: Antiproliferative activity against human MCF7 cells by MTT reduction assay; format: functional, cell-based
T47D = assay: Antiproliferative activity against human T47D cells by MTT reduction assay; format: functional, cell-based
MDA-MB-231 [10] = assay: Antiproliferative activity against human MDA-MB-231 cells by MTT reduction assay; format: functional, cell-based
Bacillus subtilis [11] = assay: Antibacterial activity against Bacillus subtilis; format: functional
Staphylococcus aureus [12] = assay: microbe, parasite or virus in culture
Escherichia coli [13] = assay: microbe, parasite or virus in culture
HeLa = assay: Growth inhibition of human HeLa cells at 20 micromol relative to control; format: functional; conditions: dose 20 µmol
HepG2 = assay: Growth inhibition of human HepG2 cells at 20 micromol relative to control; format: functional; conditions: dose 20 µmol
MDA-MB-231 [14] = assay: Growth inhibition of human MDA-MB-231 cells at 20 micromol relative to control; format: functional; conditions: dose 20 µmol

Sequence of Acetylcholinesterase (P22303 whole entry): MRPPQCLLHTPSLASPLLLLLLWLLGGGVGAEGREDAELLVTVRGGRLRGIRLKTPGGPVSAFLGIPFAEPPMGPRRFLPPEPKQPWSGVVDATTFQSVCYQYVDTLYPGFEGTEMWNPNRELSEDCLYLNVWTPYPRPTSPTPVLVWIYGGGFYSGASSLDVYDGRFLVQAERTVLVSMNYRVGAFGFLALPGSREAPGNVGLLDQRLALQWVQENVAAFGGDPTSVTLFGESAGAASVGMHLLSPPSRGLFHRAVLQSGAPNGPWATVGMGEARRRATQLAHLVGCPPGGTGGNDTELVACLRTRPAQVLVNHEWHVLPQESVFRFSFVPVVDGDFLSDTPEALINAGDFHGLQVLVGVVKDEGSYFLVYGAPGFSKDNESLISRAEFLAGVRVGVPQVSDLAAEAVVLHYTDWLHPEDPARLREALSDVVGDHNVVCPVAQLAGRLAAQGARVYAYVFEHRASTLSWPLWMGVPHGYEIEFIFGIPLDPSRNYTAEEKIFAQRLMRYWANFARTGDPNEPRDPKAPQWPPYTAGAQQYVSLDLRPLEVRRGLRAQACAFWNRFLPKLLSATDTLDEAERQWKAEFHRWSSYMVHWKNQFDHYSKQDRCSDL
Sequence of Cholinesterase (P06276 whole entry): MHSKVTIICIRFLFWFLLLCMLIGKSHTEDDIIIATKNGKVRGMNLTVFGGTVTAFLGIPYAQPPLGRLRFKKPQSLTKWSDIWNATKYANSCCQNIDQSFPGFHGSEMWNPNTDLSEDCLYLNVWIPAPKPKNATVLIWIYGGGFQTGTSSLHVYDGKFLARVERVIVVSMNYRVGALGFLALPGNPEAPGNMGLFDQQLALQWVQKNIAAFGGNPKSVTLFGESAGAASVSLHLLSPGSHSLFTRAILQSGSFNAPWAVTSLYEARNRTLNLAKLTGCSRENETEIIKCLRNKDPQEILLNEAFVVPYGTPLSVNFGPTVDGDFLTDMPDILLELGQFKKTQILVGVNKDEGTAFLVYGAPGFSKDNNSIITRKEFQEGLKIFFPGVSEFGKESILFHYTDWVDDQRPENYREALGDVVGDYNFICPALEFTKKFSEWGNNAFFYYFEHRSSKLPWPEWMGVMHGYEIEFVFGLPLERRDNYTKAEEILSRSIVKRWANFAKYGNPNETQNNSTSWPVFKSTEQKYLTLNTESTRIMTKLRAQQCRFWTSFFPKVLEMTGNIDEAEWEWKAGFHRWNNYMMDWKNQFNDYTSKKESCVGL

MIC (Salmonella sp.): 0.038 µg/mL (≈ 0.0913 µM)
MIC (Proteus vulgaris): 0.075 µg/mL (≈ 0.18 µM)
MIC (Pseudomonas aeruginosa): 0.038 µg/mL (≈ 0.0913 µM)
MIC (Escherichia coli [4]): 0.038 µg/mL (≈ 0.0913 µM)
MIC (Staphylococcus aureus [5]): 0.075 µg/mL (≈ 0.18 µM)
Structure (SMILES): COc1ccc(CO[C@]2([C@@]3(O)C(=O)Nc4ccccc43)C(=O)Nc3ccccc32)cc1

IC50 (SMMC-7721): 9.6 µM
IC50 (MGC-803): 4.2 µM
Structure (SMILES): C[C@]12CC[C@H](O)CC1=CCC1C2CC[C@@]2(C)C1CC[C@@H]2C1=CC2(C(=O)Nc3ccc(Cl)cc32)C(C#N)=C(N)N1 (some centres not stated)
IC50 (ECa-109 cell line): 3.8 µM

MIC (Candida albicans): 128 µg/mL (≈ 245 µM)
MIC (Saccharomyces cerevisiae): 64 µg/mL (≈ 122 µM)
Structure (SMILES): COc1ccc(-n2cc(CN3C(=O)C4(C(C#N)=C(N)OC5=C4C(=O)CC(C)(C)C5)c4ccccc43)nn2)cc1 (configuration not stated)

IC50 (PC-3): 0.08 µM
IC50 (LNCaP): 1.3 µM
Structure (SMILES): O=C1c2ccccc2C2Oc3c(c(=O)oc4ccccc34)C3(C(=O)N(c4ccc(Cl)cc4)c4ccccc43)C12 (configuration not stated)

IC50 (PC-3): 0.03 µM
IC50 (LNCaP): 1.9 µM
Structure (SMILES): O=C1c2ccccc2C2Oc3c(c(=O)oc4ccccc34)C3(C(=O)Nc4ccc(Br)cc43)C12 (configuration not stated)

MIC (Staphylococcus aureus [6]): 16 µg/mL (≈ 31.6 µM)
MIC (Bacillus subtilis [7]): 8 µg/mL (≈ 15.8 µM)
MIC (Escherichia coli [8]): 64 µg/mL (≈ 126 µM)
Structure (SMILES): CC1(C)CC(=O)C2=C(C1)N(c1ccc(Cl)cc1)C(=O)C21C2=C(Nc3ccccc31)c1ccccc1C2=O (configuration not stated)

MIC (Staphylococcus aureus [6]): 16 µg/mL (≈ 30.9 µM)
MIC (Bacillus subtilis [7]): 16 µg/mL (≈ 30.9 µM)
MIC (Escherichia coli [8]): 128 µg/mL (≈ 247 µM)
Structure (SMILES): CC1(C)CC(=O)C2=C(C1)N(c1ccccc1)C(=O)C21C2=C(Nc3ccc([N+](=O)[O-])cc31)c1ccccc1C2=O (configuration not stated)

MIC (Proteus mirabilis): 16 µg/mL (≈ 28 µM)
MIC [9]: 8 µg/mL (≈ 14 µM)
Structure (SMILES): CC1(C)CC(=O)C(=C2SC(N)=C(C#N)C3(S2)C(=O)N(Cc2ccc(Cl)cc2Cl)c2ccccc23)C(=O)C1 (configuration not stated)

IC50 (MCF7): 5.4 µM
IC50 (T47D): 6.2 µM
IC50 (MDA-MB-231 [10]): 5.8 µM
Structure (SMILES): O=C(c1ccc(OCCN2CCCC2)cc1)[C@H]1[C@H](c2ccccc2)C2CS[C@H](c3ccccc3)N2C12C(=O)Nc1ccc(F)cc12 (some centres not stated)

IC50 (MCF7): 3.7 µM
IC50 (T47D): 4.7 µM
IC50 (MDA-MB-231 [10]): 4.2 µM
Structure (SMILES): O=C(c1ccc(OCCN2CCC2)cc1)[C@H]1[C@H](c2ccccc2)C2CS[C@H](c3ccccc3)N2C12C(=O)Nc1ccc(Cl)cc12 (some centres not stated)

MIC (Salmonella sp.): 0.034 µg/mL (≈ 0.0731 µM)
MIC (Proteus vulgaris): 0.067 µg/mL (≈ 0.144 µM)
MIC (Pseudomonas aeruginosa): 0.067 µg/mL (≈ 0.144 µM)
MIC (Escherichia coli [4]): 0.034 µg/mL (≈ 0.0731 µM)
MIC (Staphylococcus aureus [5]): 0.067 µg/mL (≈ 0.144 µM)
Structure (SMILES): O=C1Nc2ccccc2[C@@]1(O)[C@@]1(OCc2ccc(Br)cc2)C(=O)Nc2ccccc21

Second part, the compound before the results:

Structure (SMILES): COc1ccc([C@@H]2CN(C)[C@]3(C(=O)N(C)c4ccccc43)[C@]23Oc2cc(O)ccc2C3=O)cc1
Activity (Tobacco mosaic virus [1]): 55.1%
Activity (Tobacco mosaic virus [2]): 47.3%
Activity (Tobacco mosaic virus [3]): 51.2%

Structure (SMILES): COc1cc2c(cc1OC)C(=O)[C@]1(C2)[C@H](c2cccc([N+](=O)[O-])c2)[C@H](Cc2c[nH]c3ccccc23)NC12C(=O)Nc1ccccc12 (some centres not stated)
IC50 (Acetylcholinesterase): 1.89 µM
IC50 (Cholinesterase): 28.4 µM

Structure (SMILES): CCOC1=Nc2ccccc2/C1=C\C(=O)c1ccccc1O
zone of inhibition at 25 µg/mL (Aspergillus niger): 10 mm
zone of inhibition at 25 µg/mL (Candida metapsilosis): 11 mm

Structure (SMILES): CN1C[C@@H](c2ccccc2)[C@@]2(Oc3cc(O)ccc3C2=O)[C@@]12C(=O)N(Cc1ccccc1)c1ccccc12
Activity (Tobacco mosaic virus [1]): 57.1%
Activity (Tobacco mosaic virus [2]): 52.3%
Activity (Tobacco mosaic virus [3]): 50.9%

Structure (SMILES): CCOC1=Nc2ccccc2/C1=C\C(=O)c1ccc([N+](=O)[O-])cc1
zone of inhibition at 25 µg/mL (Aspergillus niger): 11 mm
zone of inhibition at 25 µg/mL (Candida metapsilosis): 11 mm

Structure (SMILES): CC(C)=CC(=O)[C@H]1[C@H](c2ccc(F)cc2)CN(C)[C@]12C(=O)N(C)c1ccccc12
IC50 (A549): 19.1 µM
IC50 (K562): 7.2 µM

Structure (SMILES): COc1cc2c(cc1OC)C(=O)[C@]1(C2)[C@H](c2ccccc2OC)[C@H](Cc2c[nH]c3ccccc23)NC12C(=O)Nc1ccccc12 (some centres not stated)
IC50 (Acetylcholinesterase): 2.76 µM
IC50 (Cholinesterase): 24 µM

Structure (SMILES): COC1=CC(=O)C[C@@H](C)[C@]12Oc1c(Cl)c(OC)cc(OC)c1C2=O [GRISEOFULVIN]
zone of inhibition at 25 µg/mL (Aspergillus niger): 10 mm
zone of inhibition at 25 µg/mL (Candida metapsilosis): 10 mm

Structure (SMILES): O=C(N[C@H](CO)[C@H](O)c1ccc([N+](=O)[O-])cc1)C(Cl)Cl [CHLORAMPHENICOL]
MIC (Bacillus subtilis [11]): 4 µg/mL (≈ 12.4 µM)
MIC (Staphylococcus aureus [12]): 8 µg/mL (≈ 24.8 µM)
MIC (Escherichia coli [13]): 4 µg/mL (≈ 12.4 µM)

Structure (SMILES): N#CC1=C(N)OC2=C(CSC/C2=C/c2ccc(C(F)(F)F)cc2)C12C(=O)Nc1ccccc12 (configuration not stated)
growth inhibition (GI) (HeLa): 83.2%
growth inhibition (GI) (HepG2): 73.1%
growth inhibition (GI) (MDA-MB-231 [14]): 61.3%
